Laboratory results as given in patent US6652835B1, “Targeting multimeric imaging agents through multilocus binding” (Epix Medical, Inc., priority 1999, dated 2003).
Where “and” joins values, the source holds several entries; their conditions need not be identical. Equal entries are not always repeated.

Columns and labels:
[1] = biological target: T1, clot containing human fibrin (Homo sapiens, UniProt P02671+P02675+P02679); assay: Rabbit jugular vein clot model, MR imaging; format: in vivo; settings: MR images after injection (FIG. 14)
T1 construct: host or cells: clot formed in the clamped rabbit jugular vein from added human fibrinogen and thrombin
T1 sequence (P02671 36-629 limits assumed): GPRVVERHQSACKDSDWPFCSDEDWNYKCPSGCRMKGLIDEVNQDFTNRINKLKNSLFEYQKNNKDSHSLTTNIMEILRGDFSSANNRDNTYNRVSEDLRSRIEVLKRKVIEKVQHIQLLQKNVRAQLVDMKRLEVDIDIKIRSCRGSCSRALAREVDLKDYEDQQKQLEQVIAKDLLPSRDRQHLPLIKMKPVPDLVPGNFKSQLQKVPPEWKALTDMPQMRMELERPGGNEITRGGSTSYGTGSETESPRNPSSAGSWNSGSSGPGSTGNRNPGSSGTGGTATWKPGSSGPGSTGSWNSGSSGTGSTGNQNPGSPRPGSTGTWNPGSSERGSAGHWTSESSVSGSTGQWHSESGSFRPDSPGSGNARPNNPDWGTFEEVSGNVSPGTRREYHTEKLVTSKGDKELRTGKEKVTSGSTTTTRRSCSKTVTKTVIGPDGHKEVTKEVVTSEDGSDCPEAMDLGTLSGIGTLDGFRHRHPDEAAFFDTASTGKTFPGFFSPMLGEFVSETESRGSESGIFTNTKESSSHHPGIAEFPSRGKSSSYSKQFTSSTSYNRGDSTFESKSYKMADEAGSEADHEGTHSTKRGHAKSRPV
T1 sequence (P02675 45-491 limits assumed): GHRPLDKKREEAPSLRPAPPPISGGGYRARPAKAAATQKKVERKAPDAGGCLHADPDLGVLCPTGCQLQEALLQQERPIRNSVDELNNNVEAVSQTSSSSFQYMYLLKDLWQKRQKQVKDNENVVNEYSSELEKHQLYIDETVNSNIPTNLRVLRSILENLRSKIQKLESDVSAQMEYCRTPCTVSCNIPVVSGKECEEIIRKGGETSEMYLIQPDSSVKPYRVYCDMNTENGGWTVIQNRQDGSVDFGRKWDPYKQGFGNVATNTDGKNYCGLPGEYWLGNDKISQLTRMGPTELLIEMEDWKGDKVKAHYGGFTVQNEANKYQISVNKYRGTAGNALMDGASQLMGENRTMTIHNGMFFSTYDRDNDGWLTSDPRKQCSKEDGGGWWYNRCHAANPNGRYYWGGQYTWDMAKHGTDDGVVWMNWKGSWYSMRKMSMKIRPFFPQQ
T1 sequence (P02679 27-437 isoform P02679-2 limits assumed): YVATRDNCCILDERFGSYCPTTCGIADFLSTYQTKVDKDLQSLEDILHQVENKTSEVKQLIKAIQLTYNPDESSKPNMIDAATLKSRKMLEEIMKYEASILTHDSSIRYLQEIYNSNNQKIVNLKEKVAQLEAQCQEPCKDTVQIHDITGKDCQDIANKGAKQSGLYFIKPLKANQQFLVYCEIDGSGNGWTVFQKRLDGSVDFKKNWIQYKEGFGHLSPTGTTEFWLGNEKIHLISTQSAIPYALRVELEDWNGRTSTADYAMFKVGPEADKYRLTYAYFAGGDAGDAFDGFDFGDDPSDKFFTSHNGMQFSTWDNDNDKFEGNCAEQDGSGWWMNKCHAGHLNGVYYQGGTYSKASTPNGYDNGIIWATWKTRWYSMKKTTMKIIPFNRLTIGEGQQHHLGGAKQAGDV
Experimental: One animal model that may be used is the rabbit jugular vein clot model in which the jugular vein is clamped. The vein is clamped at two locations, and the rabbit blood between the clamps is removed. Human fibrinogen, rabbit red blood cells and thrombin are added to the vein between the clamps to generate a clot containing human fibrin. The clot is typically aged for 30 minutes.
In the rabbit jugular model, a typical machine is a 1.5 Tesla using a spoiled gradient (SPGR) MRI at 36/5/30 deg). Alternatively, a 3D GRE 44/10/30 deg. method of imaging may be used with a 1.5 Tesla machine. Alternatively, IR 2000/10/700 methods may be employed with a 1.5 Tesla.
FIG. 14 is a reproduction of a color photograph of the images obtained in an experiment using the assay given in Example 1.

[2] = biological target: T2, Human Serum Albumin (HSA) (Homo sapiens, UniProt P02768); assay: Percent binding to HSA (ultrafiltration); settings: target HSA
Description: The extent of binding of a TBM to a target, such as HSA or fibrin, can be assessed by a variety of equilibrium binding methods. For example, binding to HSA can be measured by ultrafiltration. In a typical binding measurement using ultrafiltration, the targeting group is mixed with 4.5% weight/volume HSA in a pH 7.4 buffer. The sample is loaded into a commercially available centrifugation apparatus equipped with a 30 KDa molecular weight cutoff filter (Millipore Ultrafree MC Low Binding Regenerated Cellulose 30 KDa mol. wt. cutoff catalog #UFC3LTK00), permeable to the targeting group, but not HSA. A small portion (5-10%) of the sample volume is filtered by centrifugation at 2000×g for 20 min through the cutoff filter, and the concentration of unbound targeting group in the sample is measured in the filtrate. The concentration of species bound to the target under these conditions is determined in a separate experiment using e.g. ultrafiltration or equilibrium dialysis. Knowledge of the amount of species bound to the target, the relaxivity in the presence of the target, and the relaxivity in the absence of the target allows the calculation of the average bound relaxivity as described herein.

[3] = biological target: T2, Human Serum Albumin (HSA); assay: Average bound relaxivity in the presence of 4.5% HSA (20 MHz, 37° C.); format: physicochemical; settings: for R1bound/Gd^+3 mM^−1s^−1 (20 MHz) / Total R1bound mM^−1s^−1 (20 MHz): bound to HSA; for R1bound/Gd^+3 mM^−1s^−1 (20 MHz): per Gd(III); for Total R1bound mM^−1s^−1 (20 MHz): whole molecule
Description: To understand Table 1, it is important to define the extent to which a target-binding MRI contrast agent can achieve its maximum possible relaxivity. This maximum relaxivity for a particular contrast agent is approximately equal to the relaxivity of the molecule when bound to a target (R1bound), such as Human Serum Albumin (HSA). The average ? bound is a normalized measure of the average relaxivity for all bound species under a standard set of conditions (such as a specific target or protein concentration, drug concentration, temperature, etc.) that is weighted by the bound population of each species. Therefore, since the value of ? bound is a normalized quantity, comparisons of relaxivities can be made among different molecules in the bound state by comparing values for ? bound. Comparison of the calculated ? bound values provides a convenient method for comparing compounds irrespective of their affinities for a target.
Calculating the average ( ? bound) requires measuring the relaxivity of the free chelate (R1free) as well as the observed relaxivity (R1obs) and percent binding of the agent to a target solution typically containing 4.5% of the target, e.g., HSA. The R1obs is a mole fraction (x) weighted average of R1free and R1bound: [formula]
(§1) The compounds of the present invention were evaluated for relaxivity using a Bruker NMS-120 Minispec NMR spectrometer operating at 0.47 Tesla (20 MHz H-1 Larmor frequency) and 37° C. T1 of water protons was determined by an inversion recovery pulse sequence using the instrument's software. Relaxivity was determined in the presence of the target (typically 4.5% HSA) by preparing 4 individual samples. The first contained only 4.5% HSA in phosphate buffered saline (PBS), and the other three contained ca. 20, 30, and 40 μM Gd(III), respectively, in addition to 4.5% HSA in PBS. The samples are incubated at 37 degrees C. for at least 15 minutes to ensure temperature equilibration before the T1 measurement is performed. The Gd(III) content of the samples is determined by inductively coupled plasma—mass spectrometry (ICP-MS). The relaxivity (per Gd(III) ion) is determined by plotting the relaxation rate (1/T1) in s^−1 versus the Gd(III) concentration in mM. The slope of a linear fit to the data gives the relaxivity. The relaxivity of the compounds in the absence of target is also determined in an analogous manner, except there is no target present.
The concentration of species bound to the target under these conditions is determined in a separate experiment using e.g. ultrafiltration or equilibrium dialysis. Knowledge of the amount of species bound to the target, the relaxivity in the presence of the target, and the relaxivity in the absence of the target allows the calculation of the average bound relaxivity as described herein.

[4] = Relaxivity of the free agent in the absence of target (20 MHz, 37° C.); format: physicochemical; settings: no target
Experimental: as §1

T2 sequence (P02768 25-609): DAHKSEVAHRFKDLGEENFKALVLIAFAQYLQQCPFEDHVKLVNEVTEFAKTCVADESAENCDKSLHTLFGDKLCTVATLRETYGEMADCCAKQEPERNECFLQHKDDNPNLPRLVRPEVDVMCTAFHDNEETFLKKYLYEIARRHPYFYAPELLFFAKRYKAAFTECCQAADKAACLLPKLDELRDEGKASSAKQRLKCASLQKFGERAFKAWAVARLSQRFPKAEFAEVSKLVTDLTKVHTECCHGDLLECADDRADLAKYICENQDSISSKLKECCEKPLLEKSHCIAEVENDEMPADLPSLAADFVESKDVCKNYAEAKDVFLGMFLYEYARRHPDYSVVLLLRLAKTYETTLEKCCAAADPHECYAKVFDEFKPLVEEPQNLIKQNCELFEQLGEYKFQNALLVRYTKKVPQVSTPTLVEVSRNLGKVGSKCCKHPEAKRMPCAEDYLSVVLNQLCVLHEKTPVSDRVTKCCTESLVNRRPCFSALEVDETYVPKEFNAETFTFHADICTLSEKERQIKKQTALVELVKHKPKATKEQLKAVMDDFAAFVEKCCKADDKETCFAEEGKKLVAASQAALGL

Compound	imaging of / binding to the clot [1]	% Bound [2] [%]	R1bound/Gd^+3 mM^−1s^−1 (20 MHz) [3]	Total R1bound mM^−1s^−1 (20 MHz) [3]	ratio of R1bound to R1free ([3]; HSA)	fold increase in total relaxivity, two TBMs versus one TBM (M8-07) ([3]; HSA, relative to M8-07) [fold]	free relaxivity [4] [mM⁻¹ s⁻¹]
O=C([O-])CN(CCN(CC(=O)[O-])CC(=O)O)CCN(CC(=O)[O-])CC(=O)O.[Gd+3] [Gd-DTPA, gadolinium diethylenetriaminepentaacetic acid]	does not bind						
CCCCc1ccc(C(=O)N(Cc2ccccc2)C2c3ccccc3CC2OP(=O)([O-])OCCC#CCN2CCN(C(=O)CNC(=O)CC(C(=O)[O-])N(CCN(CC(=O)[O-])CC(=O)[O-])CCN(CC(=O)[O-])CC(=O)[O-])CCN(C(=O)CNC(=O)CC(C(=O)[O-])N(CCN(CC(=O)[O-])CC(=O)[O-])CCN(CC(=O)[O-])CC(=O)[O-])CCN(C(=O)CNC(=O)CC(C(=O)[O-])N(CCN(CC(=O)[O-])CC(=O)[O-])CCN(CC(=O)[O-])CC(=O)[O-])CC2)cc1.[Gd+3].[Gd+3].[Gd+3] (stereo not drawn) [Compound M8-10]		66.1	25.7 mM⁻¹ s⁻¹	77.1 mM⁻¹ s⁻¹			
Cc1cc(C)c(-c2ccc(CN(CCN(CCN(CCN(Cc3ccc(-c4c(C)cc(C)cc4C)cc3)C(=O)CNC(=O)CC(C(=O)[O-])N(CCN(CC(=O)[O-])CC(=O)[O-])CCN(CC(=O)[O-])CC(=O)[O-])C(=O)CNC(=O)CC(C(=O)[O-])N(CCN(CC(=O)[O-])CC(=O)[O-])CCN(CC(=O)[O-])CC(=O)[O-])C(=O)CNC(=O)CC(C(=O)[O-])N(CCN(CC(=O)[O-])CC(=O)[O-])CCN(CC(=O)[O-])CC(=O)[O-])C(=O)CNC(=O)CC(C(=O)[O-])N(CCN(CC(=O)[O-])CC(=O)[O-])CCN(CC(=O)[O-])CC(=O)[O-])cc2)c(C)c1.[Gd+3].[Gd+3].[Gd+3].[Gd+3] (stereo not drawn) [Compound M8-08]		93.7	44.1 mM⁻¹ s⁻¹	176.5 mM⁻¹ s⁻¹	4.3	2.75	10.3
Cc1cc(C)c(-c2ccc(CN(CCN(CCN(CCNC(=O)CNC(=O)CC(C(=O)[O-])N(CCN(CC(=O)[O-])CC(=O)[O-])CCN(CC(=O)[O-])CC(=O)[O-])C(=O)CNC(=O)CC(C(=O)[O-])N(CCN(CC(=O)[O-])CC(=O)[O-])CCN(CC(=O)[O-])CC(=O)[O-])C(=O)CNC(=O)CC(C(=O)[O-])N(CCN(CC(=O)[O-])CC(=O)[O-])CCN(CC(=O)[O-])CC(=O)[O-])C(=O)CNC(=O)CC(C(=O)[O-])N(CCN(CC(=O)[O-])CC(=O)[O-])CCN(CC(=O)[O-])CC(=O)[O-])cc2)c(C)c1.[Gd+3].[Gd+3].[Gd+3].[Gd+3] (stereo not drawn) [Compound M8-07]		64.1	16.0 mM⁻¹ s⁻¹ and 16 mM⁻¹ s⁻¹	64.0 mM⁻¹ s⁻¹ and 64 mM⁻¹ s⁻¹	1.7		9.2
